pIC50: −log10 of the molar value.
Columns and labels:
[1] = target: T1, mutEGFR (D770_N771insSVD) (Homo sapiens, UniProt P00533, DUP768-770); assay: Exon20-Mutant-EGFR (D770_N771insSVD) kinase assay (TR-FRET); format: biochemical; settings: mutEGFR (D770_N771insSVD) kinase assay IC50, Table 2a; D770_N771insSVD; 2 mM ATP
T1 construct: GST-EGFR #3 (SVD between D770 and N771); made in house; host or cells: Sf9 insect cells (baculovirus)

[2] = target: T2, mutEGFR (D770_N771insNPG, T790) (Homo sapiens, UniProt P00533, INS770NPG/T790M); assay: mutEGFR (D770_N771insNPG, T790) kinase assay; format: biochemical; settings: Table 2a, D770_N771insNPG
T2 construct: exact insNPG construct not described; in-house EGFR proteins were N-terminal GST fusions from baculovirus/insect cells (borders R669-A1210 given only for WT, insSVD, insASV)
From the text: The different EGFR proteins used in the biochemical kinase activity inhibition assays were generated inhouse by expression in insect cells using Baculo Virus system and subsequent purification as described in the following paragraphs.
The cDNAs encoding the various protein sequences from human EGFR human (P00533) were optimized for expression in eukaryotic cells and synthesized by the GeneArt Technology at Life Technologies.

[3] = test system: BA/F3 (insSVD) cells; assay: Ba/F3-EGFR-insSVD cell survival assay (Cell Titer-Glo); format: cell-based; settings: Mus musculus, BaF3, 48 h, Table 3a, cell survival, Cell Titer-Glo, with 10 ng/ml EGF, without IL-3
Outline: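 Ba/F3 cells stably expressing retroviral EGFR-insSVD or insSVD T790M, grown without IL-3 on 10 ng/ml EGF, 4000 cells/well. Compound pinned in, 48 h at 37° C. Viability by CellTiter-Glo luminescence.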

T2 sequence (P00533 with tags, fused parts or gaps INS770NPG/T790M limits assumed): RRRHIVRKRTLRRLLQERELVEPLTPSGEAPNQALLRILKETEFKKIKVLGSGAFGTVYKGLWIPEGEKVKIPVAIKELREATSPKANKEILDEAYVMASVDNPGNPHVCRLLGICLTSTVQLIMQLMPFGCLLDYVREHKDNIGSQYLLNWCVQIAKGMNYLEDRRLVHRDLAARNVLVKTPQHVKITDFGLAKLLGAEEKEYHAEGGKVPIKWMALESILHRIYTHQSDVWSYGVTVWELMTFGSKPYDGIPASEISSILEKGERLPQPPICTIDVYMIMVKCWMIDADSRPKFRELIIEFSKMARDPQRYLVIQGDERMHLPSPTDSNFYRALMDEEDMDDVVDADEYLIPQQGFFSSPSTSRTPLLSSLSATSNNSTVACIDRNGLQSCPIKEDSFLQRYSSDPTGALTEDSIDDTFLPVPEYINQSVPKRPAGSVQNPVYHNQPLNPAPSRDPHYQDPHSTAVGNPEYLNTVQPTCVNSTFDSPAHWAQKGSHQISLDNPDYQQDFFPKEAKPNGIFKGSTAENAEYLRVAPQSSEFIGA
T1 sequence (P00533 with tags, fused parts or gaps DUP768-770): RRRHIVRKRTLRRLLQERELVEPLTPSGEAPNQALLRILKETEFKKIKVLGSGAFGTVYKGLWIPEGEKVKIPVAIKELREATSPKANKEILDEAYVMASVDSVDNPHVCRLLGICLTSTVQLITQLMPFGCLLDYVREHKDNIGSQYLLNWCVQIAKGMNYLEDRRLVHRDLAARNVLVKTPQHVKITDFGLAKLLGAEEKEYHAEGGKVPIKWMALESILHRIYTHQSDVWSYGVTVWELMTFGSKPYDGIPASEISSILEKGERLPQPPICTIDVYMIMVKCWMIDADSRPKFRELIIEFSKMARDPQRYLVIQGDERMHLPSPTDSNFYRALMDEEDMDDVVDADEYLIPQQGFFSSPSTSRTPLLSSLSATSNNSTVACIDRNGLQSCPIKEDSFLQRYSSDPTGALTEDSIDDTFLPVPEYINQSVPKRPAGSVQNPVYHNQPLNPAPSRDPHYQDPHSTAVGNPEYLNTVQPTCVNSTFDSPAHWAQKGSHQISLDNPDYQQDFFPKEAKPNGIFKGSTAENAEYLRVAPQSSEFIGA

SMILES	pIC50 [1]	pIC50 [2]	pIC50 [3]
C=CC(=O)N1CCn2nc(-c3ccc(F)cc3)c(-c3ccnc4[nH]cc(C)c34)c2C1 [Example 173, 1-[2-(4-fluorophenyl)-3-(3-methyl-1H-pyrrolo[2,3-b]pyridin-4-yl)-6,7-dihydropyrazolo[1,5-a]pyrazin-5(4H)-yl]prop-2-en-1-one]	6.80	7.59	7.20
C=CC(=O)N1CCn2nc(-c3ccc(C(F)(F)F)cc3F)c(-c3ccnc4[nH]cc(C)c34)c2C1 [Example 174, 1-(2-(2-fluoro-4-(trifluoromethyl)phenyl)-3-(3-methyl-1H-pyrrolo[2,3-b]pyridin-4-yl)-6,7-dihydropyrazolo[1,5-a]pyrazin-5(4H)-yl) prop-2-en-1-one]	6.75	5.67	6.80
C=CC(=O)N1CCn2nc(-c3ccc(Cl)cc3)c(-c3ccnc4[nH]cc(C)c34)c2C1 [Example 175, 1-[2-(4-chlorophenyl)-3-(3-methyl-1H-pyrrolo[2,3-b]pyridin-4-yl)-6,7-dihydropyrazolo[1,5-a]pyrazin-5(4H)-yl]prop-2-en-1-one]	7.01	7.09	7.20
C=CC(=O)N1CCn2nc(-c3cccc(Cl)c3)c(-c3ccnc4[nH]cc(C)c34)c2C1 [Example 177, 1-[2-(3-chlorophenyl)-3-(3-methyl-1H-pyrrolo[2,3-b]pyridin-4-yl)-6,7-dihydropyrazolo[1,5-a]pyrazin-5(4H)-yl]prop-2-en-1-one]	7.36	7.75	7.23
C=CC(=O)N1CCn2nc(-c3ccccc3Cl)c(-c3ccnc4[nH]cc(C)c34)c2C1 [Example 179, 1-[2-(2-chlorophenyl)-3-(3-methyl-1H-pyrrolo[2,3-b]pyridin-4-yl)-6,7-dihydropyrazolo[1,5-a]pyrazin-5(4H)-yl]prop-2-en-1-one]	6.36	6.44	6.58
C=CC(=O)N1CCn2nc(-c3cc(Cl)ccc3F)c(-c3ccnc4[nH]cc(C)c34)c2C1 [Example 180, 1-[2-(5-chloro-2-fluorophenyl)-3-(3-methyl-1H-pyrrolo[2,3-b]pyridin-4-yl)-6,7-dihydropyrazolo[1,5-a]pyrazin-5(4H)-yl]prop-2-en-1-one]	6.80	7.21	6.95
C=CC(=O)N1CCn2nc(-c3ccc(C#N)cc3)c(-c3ccnc4[nH]cc(C)c34)c2C1 [Example 182, 4-[3-(3-methyl-1H-pyrrolo[2,3-b]pyridin-4-yl)-5-(prop-2-enoyl)-4,5,6,7-tetrahydropyrazolo[1,5-a]pyrazin-2-yl]benzonitrile]	6.06	5.97	6.27
Cc1c[nH]c2nccc(-c3c(-c4ccc(Cl)cc4)nn4c3CN(C(=O)/C=C/CN(C)C)CC4)c12 [Example 183, (2E)-1-[2-(4-chlorophenyl)-3-(3-methyl-1H-pyrrolo[2,3-b]pyridin-4-yl)-6,7-dihydropyrazolo[1,5-a]pyrazin-5(4H)-yl]-4-(dimethylamino)but-2-en-1-one]	7.01	6.66	7.18
Cc1c[nH]c2nccc(-c3c(-c4cccc(Cl)c4)nn4c3CN(C(=O)/C=C/CN(C)C)CC4)c12 [Example 184, (2E)-1-[2-(3-chlorophenyl)-3-(3-methyl-1H-pyrrolo[2,3-b]pyridin-4-yl)-6,7-dihydropyrazolo[1,5-a]pyrazin-5(4H)-yl]-4-(dimethylamino)but-2-en-1-one]	6.81	7.28	7.25
Cc1c[nH]c2nccc(-c3c(-c4cccc5ccoc45)nn4c3CN(C(=O)/C=C/CN(C)C)CC4)c12 [Example 186, (2E)-1-[2-(1-benzofuran-7-yl)-3-(3-methyl-1H-pyrrolo[2,3-b]pyridin-4-yl)-6,7-dihydropyrazolo[1,5-a]pyrazin-5(4H)-yl]-4-(dimethylamino)but-2-en-1-one formic acid (1:1)]	6.68	6.89	6.25
C=CC(=O)N1CCn2nc(-c3ccc(C(F)(F)F)nc3)c(-c3ccncc3)c2C1 [Example 188, 1-[3-(pyridin-4-yl)-2-[6-(trifluoromethyl)pyridin-3-yl]-6,7-dihydropyrazolo[1,5-a]pyrazin-5(4H)-yl]prop-2-en-1-one]	6.81	7.95	6.83
C=CC(=O)N1CCn2nc(-c3ccccc3)c(-c3ccncc3)c2C1 [Example 189, 1-[2-phenyl-3-(pyridin-4-yl)-6,7-dihydropyrazolo[1,5-a]pyrazin-5(4H)-yl]prop-2-en-1-one]	8.99	8.76	7.65
C=CC(=O)N1CCn2nc(-c3ccc(Cl)c(CC)c3)c(-c3ccncc3)c2C1 [Example 190, 1-[2-(4-chloro-3-ethylphenyl)-3-(pyridin-4-yl)-6,7-dihydropyrazolo[1,5-a]pyrazin-5(4H)-yl]prop-2-en-1-one]	8.99	8.52	6.76
C=CC(=O)N1CCn2nc(-c3ccc(Cl)cc3CO)c(-c3ccncc3)c2C1 [Example 191, 1-{2-[4-chloro-2-(hydroxymethyl)phenyl]-3-(pyridin-4-yl)-6,7-dihydropyrazolo[1,5-a]pyrazin-5(4H)-yl}prop-2-en-1-one]	9.20	8.90	7.48
C=CC(=O)N1CCn2nc(-c3ccc4[nH]ccc4c3)c(-c3ccncc3)c2C1 [Example 193, 1-[2-(1H-indol-5-yl)-3-(pyridin-4-yl)-6,7-dihydropyrazolo[1,5-a]pyrazin-5(4H)-yl]prop-2-en-1-one]	9.08	8.55	7.34
C=CC(=O)N1CCn2nc(-c3ccc4occc4c3)c(-c3ccncc3)c2C1 [Example 194, 1-[2-(1-benzofuran-5-yl)-3-(pyridin-4-yl)-6,7-dihydropyrazolo[1,5-a]pyrazin-5(4H)-yl]prop-2-en-1-one]	9.84	9.40	7.82
CN(C)C/C=C/C(=O)N1CCn2nc(-c3ccc4sccc4c3)c(-c3ccncc3)c2C1 [Example 196, (2E)-1-[2-(1-benzothiophen-5-yl)-3-(pyridin-4-yl)-6,7-dihydropyrazolo[1,5-a]pyrazin-5(4H)-yl]-4-(dimethylamino)but-2-en-1-one]	9.74	9.38	7.39
CN(C)C/C=C/C(=O)N1CCn2nc(-c3ccc4[nH]ccc4c3)c(-c3ccncc3)c2C1 [Example 197, (2E)-4-(dimethylamino)-1-[2-(1H-indol-5-yl)-3-(pyridin-4-yl)-6,7-dihydropyrazolo[1,5-a]pyrazin-5(4H)-yl]but-2-en-1-one]	8.84	8.10	6.00
CN(C)C/C=C/C(=O)N1CCn2nc(-c3ccc4nn[nH]c4c3)c(-c3ccncc3)c2C1 [Example 198, (2E)-1-[2-(1H-benzotriazol-6-yl)-3-(pyridin-4-yl)-6,7-dihydropyrazolo[1,5-a]pyrazin-5(4H)-yl]-4-(dimethylamino)but-2-en-1-one]	6.32	5.97	5.19
CN(C)C/C=C/C(=O)N1CCn2nc(-c3ccc4occc4c3)c(-c3ccncc3)c2C1 [Example 199, (2E)-1-[2-(1-benzofuran-5-yl)-3-(pyridin-4-yl)-6,7-dihydropyrazolo[1,5-a]pyrazin-5(4H)-yl]-4-(dimethylamino)but-2-en-1-one]	9.17	8.69	6.88
CN(C)C/C=C/C(=O)N1CCn2nc(-c3ccc4cc[nH]c4c3)c(-c3ccncc3)c2C1 [Example 200, (2E)-4-(dimethylamino)-1-[2-(1H-indol-6-yl)-3-(pyridin-4-yl)-6,7-dihydropyrazolo[1,5-a]pyrazin-5(4H)-yl]but-2-en-1-one]	9.79	9.50	7.16
C=CC(=O)N1Cc2c(-c3ccncc3)c(-c3ccc(F)cc3)nn2C(C)(C)C1 [Example 207, 1-[2-(4-fluorophenyl)-7,7-dimethyl-3-(pyridin-4-yl)-6,7-dihydropyrazolo[1,5-a]pyrazin-5(4H)-yl]prop-2-en-1-one]	9.19	8.65	7.61
C=CC(=O)N1Cc2c(-c3ccncc3)c(-c3ccc(Cl)c(C)c3)nn2C(C)(C)C1 [Example 208, 1-[2-(4-chloro-3-methylphenyl)-7,7-dimethyl-3-(pyridin-4-yl)-6,7-dihydropyrazolo[1,5-a]pyrazin-5(4H)-yl]prop-2-en-1-one]	9.85	9.44	7.80
C=CC(=O)N1Cc2c(-c3ccncc3)c(-c3ccc(Cl)cc3)nn2C(C)(C)C1 [Example 209, 1-[2-(4-chlorophenyl)-7,7-dimethyl-3-(pyridin-4-yl)-6,7-dihydropyrazolo[1,5-a]pyrazin-5(4H)-yl]prop-2-en-1-one]	9.65	9.16	8.09
C=CC(=O)N1Cc2c(-c3ccncc3)c(-c3ccc(F)cc3)nn2CC1(C)C [Example 210, 1-[2-(4-fluorophenyl)-6,6-dimethyl-3-(pyridin-4-yl)-6,7-dihydropyrazolo[1,5-a]pyrazin-5(4H)-yl]prop-2-en-1-one]	7.59	7.22	6.26
